What follows are compounds tested against human A2A receptor (A2AR) (Homo sapiens, UniProt P29274) (assay: Luciferase reporter assay (HEK293-A2AR-luc2p/CRE/Hygro cells, 3 nM CGS21680)). Conditions: 3 nM CGS21680, 5 h incubation.
Format: cell-based
Procedure, shortened: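 Antagonist (0.1–10000 nM) and 3 nM CGS21680 were co-added for 5 h to stable HEK293-A2AR-luc2p/CRE cells, 18 h after seeding in 1% FBS medium containing adenosine deaminase. Luminescence was normalized to agonist alone (100%), and IC50 came from the dose–inhibition curve.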

human A2A receptor (A2AR), sequence (P29274 whole entry): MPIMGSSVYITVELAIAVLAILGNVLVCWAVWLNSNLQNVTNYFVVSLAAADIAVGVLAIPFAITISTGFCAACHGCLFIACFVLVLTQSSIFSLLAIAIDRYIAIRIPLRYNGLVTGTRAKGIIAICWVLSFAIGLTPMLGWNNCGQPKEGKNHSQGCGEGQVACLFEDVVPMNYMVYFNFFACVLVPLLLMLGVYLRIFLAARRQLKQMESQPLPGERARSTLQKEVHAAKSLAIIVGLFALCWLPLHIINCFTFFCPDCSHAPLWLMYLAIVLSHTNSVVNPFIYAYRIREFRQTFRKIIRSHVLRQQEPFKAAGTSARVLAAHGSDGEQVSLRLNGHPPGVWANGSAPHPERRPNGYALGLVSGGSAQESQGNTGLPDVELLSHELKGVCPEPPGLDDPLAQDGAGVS

IC50 [nM]	SMILES
335	COCCOc1ccc(N2CCN(C(=O)C(C)(Cc3ccccc3)n3ncc4c3nc(N)n3nc(-c5ccco5)nc43)CC2)cc1 (centres unmarked) [Compound A97, 2-(5-amino-2-(furan-2-yl)-7H-pyrazolo[4,3-e][1,2,4]triazolo[1,5-c]pyrimidin-7-yl)-1-(4-(4-(2-methoxyethoxy)phenyl)piperazin-1-yl)-2-methyl-3-phenylpropan-1-one]
4.2	COc1cccc(N2CCN(C(=O)C(C)(c3ccccc3)n3ncc4c3nc(N)n3nc(-c5ccco5)nc43)CC2)c1 (centres unmarked) [Compound A77, 2-(5-amino-2-(furan-2-yl)-7H-pyrazolo[4,3-e][1,2,4]triazolo[1,5-c]pyrimidin-7-yl)-1-(4-(3-methoxyphenyl)piperazin-1-yl)-2-phenylpropan-1-one]
5.5	CN(C)C(=O)c1ccc(N2CCN(C(=O)C(C)(c3ccccc3)n3ncc4c3nc(N)n3nc(-c5ccco5)nc43)CC2)cc1 (centres unmarked) [Compound A104, 4-(4-(2-(5-amino-2-(furan-2-yl)-7H-pyrazolo[4,3-e][1,2,4]triazolo[1,5-c]pyrimidin-7-yl)-2-phenylpropanoyl)piperazin-1-yl)-N,N-dimethylbenzamide]
6.5	COCCOc1ccc(N2CCN(C(=O)C(C)(c3ccccc3)n3ncc4c3nc(N)n3nc(-c5ccco5)nc43)CC2)cc1F (centres unmarked) [Compound A66, 2-(5-amino-2-(furan-2-yl)-7H-pyrazolo[4,3-e][1,2,4]triazolo[1,5-c]pyrimidin-7-yl)-1-(4-(3-fluoro-4-(2-methoxyethoxy)phenyl)piperazin-1-yl)-2-phenylpropan-1-one]
4.4	CC(C(=O)N1CCN(c2ccc(F)cc2F)CC1)(c1ccccc1)n1ncc2c1nc(N)n1nc(-c3ccco3)nc21 (centres unmarked) [Compound A68, 2-(5-amino-2-(furan-2-yl)-7H-pyrazolo[4,3-e][1,2,4]triazolo[1,5-c]pyrimidin-7-yl)-1-(4-(2,4-difluorophenyl)piperazin-1-yl)-2-phenylpropan-1-one]
3.3	COCCOc1cc(F)c(N2CCN(C(=O)[C@@](C)(c3ccccc3)n3ncc4c3nc(N)n3nc(-c5ccco5)nc43)CC2)cc1F [Compound A65b, (R)-2-(5-amino-2-(furan-2-yl)-7H-pyrazolo[4,3-e][1,2,4]triazolo[1,5-c]pyrimidin-7-yl)-1-(4-(2,5-difluoro-4-(2-methoxyethoxy)phenyl)piperazin-1-yl)-2-phenylpropan-1-one]
4.9	CCCC(C(=O)N1CCN(c2cc(F)c(OCCOC)cc2F)CC1)n1ncc2c1nc(N)n1nc(-c3ccco3)nc21 (centres unmarked) [Compound A54, 2-(5-amino-2-(furan-2-yl)-7H-pyrazolo[4,3-e][1,2,4]triazolo[1,5-c]pyrimidin-7-yl)-1-(4-(2,5-difluoro-4-(2-methoxyethoxy)phenyl)piperazin-1-yl)pentan-1-one]
3.9	CC(C(=O)N1CCN(c2ccc(OCCN3CCCC3)cc2)CC1)(c1ccccc1)n1ncc2c1nc(N)n1nc(-c3ccco3)nc21 (centres unmarked) [Compound A101, 2-(5-amino-2-(furan-2-yl)-7H-pyrazolo[4,3-e][1,2,4]triazolo[1,5-c]pyrimidin-7-yl)-2-phenyl-1-(4-(4-(2-(pyrrolidin-1-yl)ethoxy)phenyl)piperazin-1-yl)propan-1-one]

The remaining lines, values behind:

SMILES	IC50 [nM]
COCCOc1ccc(N2CCN(C(=O)C(C(C)C)n3ncc4c3nc(N)n3nc(-c5ccco5)nc43)CC2)cc1 (centres unmarked) [Compound A2, 2-(5-amino-2-(furan-2-yl)-7H-pyrazolo[4,3-e][1,2,4]Triazolo[1,5-c]pyrimidin-7-yl)-1-(4-(4-(2-methoxyethoxy)phenyl)piperazin-1-yl)-3-methylbutan-1-one]	96.9
COCCOc1ccc(N2CCN(C(=O)C(C)(C)n3cc4c(nc(N)n5nc(-c6ccco6)nc45)n3)CC2)cc1 [Compound C3, 2-(5-amino-2-(furan-2-yl)-8H-pyrazolo[4,3-e][1,2,4]triazolo[1,5-c]pyrimidin-8-yl)-1-(4-(4-(2-methoxyethoxy)phenyl)piperazin-1-yl)-2-methylpropan-1-one]	1870
COCCOc1ccc(N2CCN(C(=O)C(c3ccccc3)n3ncc4c3nc(N)n3nc(-c5ccco5)nc43)CC2C)cc1 (single isomer, unassigned) [Compound A47a]	17.3
CN1CCN(CCOc2ccc(N3CCN(C(=O)[C@@](C)(c4ccccc4)n4ncc5c4nc(N)n4nc(-c6ccco6)nc54)CC3)cc2)CC1 [Compound A81b, (R)-2-(5-amino-2-(furan-2-yl)-7H-pyrazolo[4,3-e][1,2,4]triazolo[1,5-c]pyrimidin-7-yl)-1-(4-(4-(2-(4-methylpiperazin-1-yl)ethoxy)phenyl)piperazin-1-yl)-2-phenylpropan-1-one]	2.6
COCCOc1ccc(N2CCN(C(=O)C(c3ccc(F)c(F)c3)n3ncc4c3nc(N)n3nc(-c5ccco5)nc43)CC2)cc1 (centres unmarked) [Compound A40, 2-(5-amino-2-(furan-2-yl)-7H-pyrazolo[4,3-e][1,2,4]triazolo[1,5-c]pyrimidin-7-yl)-2-(3,4-difluorophenyl)-1-(4-(4-(2-methoxyethoxy)phenyl)piperazin-1-yl)ethan-1-one]	23.7
CCCC(C(=O)N1CCN(c2c(F)cc(OCCOC)cc2F)CC1)n1ncc2c1nc(N)n1nc(-c3ccco3)nc21 (centres unmarked) [Compound A25, 2-(5-amino-2-(furan-2-yl)-7H-pyrazolo[4,3-e][1,2,4]triazolo[1,5-c]pyrimidin-7-yl)-1-(4-(2,6-difluoro-4-(2-methoxyethoxy)phenyl)piperazin-1-yl)pentan-1-one]	4.5
CC(C(=O)N1CCN(c2ccc(OCCN(C)C)cc2)CC1)n1cc2c(nc(N)n3nc(-c4ccco4)nc23)n1 (centres unmarked) [Compound C19, 2-(5-amino-2-(furan-2-yl)-8H-pyrazolo[4,3-e][1,2,4]triazolo[1,5-c]pyrimidin-8-yl)-1-(4-(4-(2-(dimethylamino)ethoxy)phenyl)piperazin-1-yl)propan-1-one]	46.3
COCCOc1ccc(N2CCN(C(=O)C(Cc3ccccc3)n3ncc4c3nc(N)n3nc(-c5ccco5)nc43)CC2)cc1 (centres unmarked) [Compound A19, 2-(5-amino-2-(furan-2-yl)-7H-pyrazolo[4,3-e][1,2,4]triazolo[1,5-c]pyrimidin-7-yl)-1-(4-(4-(2-methoxyethoxy)phenyl)piperazin-1-yl)-3-phenylpropan-1-one]	6.5
COCCOc1ccc(N2CCN(C(=O)C(c3ccccc3)n3cc4c(nc(N)n5nc(-c6ccco6)nc45)n3)CC2)cc1 (centres unmarked) [Compound C14, 2-(5-amino-2-(furan-2-yl)-8H-pyrazolo[4,3-e][1,2,4]triazolo[1,5-c]pyrimidin-8-yl)-1-(4-(4-(2-methoxyethoxy)phenyl)piperazin-1-yl)-2-phenylethan-1-one]	9.5
CCCC(C(=O)N1CCN(c2ccc(OCCOC)cc2)CC1)n1ncc2c1nc(N)n1nc(-c3ccco3)nc21 (centres unmarked) [Compound A5, 2-(5-amino-2-(furan-2-yl)-7H-pyrazolo[4,3-e][1,2,4]triazolo[1,5-c]pyrimidin-7-yl)-1-(4-(4-(2-methoxyethoxy)phenyl)piperazin-1-yl)pentan-1-one]	9.1
COCCOCCOc1ccc(N2CCN(C(=O)C(C3CC3)n3ncc4c3nc(N)n3nc(-c5ccco5)nc43)CC2)cc1 (centres unmarked) [Compound A21, 2-(5-amino-2-(furan-2-yl)-7H-pyrazolo[4,3-e][1,2,4]triazolo[1,5-c]pyrimidin-7-yl)-2-cyclopropyl-1-(4-(4-(2-(2-methoxyethoxy)ethoxy)phenyl)piperazin-1-yl)ethan-1-one]	21.6
COCCOc1ccc(N2CCN(C(=O)C(c3ccccc3OC)n3ncc4c3nc(N)n3nc(-c5ccco5)nc43)CC2)cc1 (single isomer, unassigned) [Compound A31a]	8.1
COCCOc1ccc(N2CCN(C(=O)C(c3cccc(F)c3)n3ncc4c3nc(N)n3nc(-c5ccco5)nc43)CC2)cc1 (centres unmarked) [Compound A42, 2-(5-amino-2-(furan-2-yl)-7H-pyrazolo[4,3-e][1,2,4]triazolo[1,5-c]pyrimidin-7-yl)-2-(3-fluorophenyl)-1-(4-(4-(2-methoxyethoxy)phenyl)piperazin-1-yl)ethan-1-one]	5.1
CO[C@H]1CCCN(C(=O)C(C)(c2ccccc2)n2ncc3c2nc(N)n2nc(-c4ccco4)nc32)C1 (stereo partly drawn) [Compound B28, 2-(5-amino-2-(furan-2-yl)-7H-pyrazolo[4,3-e][1,2,4]triazolo[1,5-c]pyrimidin-7-yl)-1-((S)-3-methoxypiperidin-1-yl)-2-phenylpropan-1-one]	33.5
COCCOCCOc1ccc(N2CCN(C(=O)C(c3ccccc3)n3ncc4c3nc(N)n3nc(-c5ccco5)nc43)CC2)cc1 (centres unmarked) [Compound A14, 2-(5-amino-2-(furan-2-yl)-7H-pyrazolo[4,3-e][1,2,4]triazolo[1,5-c]pyrimidin-7-yl)-1-(4-(4-(2-(2-methoxyethoxy)ethoxy)phenyl)piperazin-1-yl)-2-phenylethan-1-one]	12.7
COCCOc1ccc(N2CCN(C(=O)C(c3cccc(C(F)(F)F)c3)n3ncc4c3nc(N)n3nc(-c5ccco5)nc43)CC2)cc1 (centres unmarked) [Compound A36, 2-(5-amino-2-(furan-2-yl)-7H-pyrazolo[4,3-e][1,2,4]triazolo[1,5-c]pyrimidin-7-yl)-1-(4-(4-(2-methoxyethoxy)phenyl)piperazin-1-yl)-2-(3-(trifluoromethyl)phenyl)ethan-1-one]	7.7
CCCC(C(=O)N1CCN(c2ccc(OCCOCCOC)cc2)CC1)n1ncc2c1nc(N)n1nc(-c3ccco3)nc21 (single isomer, unassigned) [Compound A6b, 2-(5-amino-2-(furan-2-yl)-7H-pyrazolo[4,3-e][1,2,4]triazolo[1,5-c]pyrimidin-7-yl)-1-(4-(4-(2-(2-methoxyethoxy)ethoxy)phenyl)piperazin-1-yl)pentan-1-one]	135
CO[C@@H]1CCN(C(=O)C(C)(c2ccccc2)n2ncc3c2nc(N)n2nc(-c4ccco4)nc32)C1 (stereo partly drawn) [Compound B30, 2-(5-amino-2-(furan-2-yl)-7H-pyrazolo[4,3-e][1,2,4]triazolo[1,5-c]pyrimidin-7-yl)-1-((R)-3-methoxypyrrolidin-1-yl)-2-phenylpropan-1-one]	97.3
